Measured values taken from patent publication US6962695B1, “Modification of interferon alpha production” (Bionative AB, priority 1998, dated 2005).

What was measured:
[1] = system: Sendai virus induced human leukocytes; assay: α-interferon production in Sendai virus induced human leukocytes, ELISA of supernatant; format: cell-based; settings: for effect on production of α-interferon (in words): virus induced primary leukocytes
Description: The human leukocytes used according to the invention are prepared from buffy coats by an initial centrifugation to fractionate the components, followed by sequential removal of the plasma layer and of the leukocyte fraction by suction. Residual red blood cells contaminating the leukocyte fraction are lysed twice with 2-4 volumes of cold 0.83% ammonium chloride and each lysis step is followed by centrifugation to collect the cells. The final leukocyte fraction is resuspended in a basal medium, e.g. EMEM (Eagle's minimum essential medium) supplemented with polyethylene glycol-(PEG)-precipitated human plasma. PEG-precipitated plasma is prepared by adding PEG 6000 to a final concentration of 6% (w/w) to human plasma. After precipitation for 3-5 days in a cold room the supernatant is removed and stored frozen until used. The temperature of the incubation medium is set to 36-37° C. and continuous stirring is used. Human PEG-precipitated plasma is added to a concentration of 1-5% (v/v), preferably 4% (v/v). A low amount of α-interferon (normally 100 IU/ml) is added to the incubation medium as a priming step, but other concentrations, up to several thousands of units per ml can be used. Human leukocytes are then added to a concentration of about 3-15 million cells per mL, preferably 7-11 million cells per mL. The similar size of the enhancing effect observed using the different cell concentrations makes it probable that the effect can be seen also at cell concentrations outside this range. The priming step is normally allowed to proceed for 1-5 hours, preferably 1.5-2 hours. […] A decrease of the incubation temperature to 29° C. -32° C. is performed (Morser, J. And Shuttleworth, J. (1981) J. Gen. Virology 56, 163-174) after another 1 to 4 hours, preferable after 1 to 2 hours. The concentration range where the additives are effective in increasing the interferon production varies between the different compounds but for the least toxic solvents a positive effect can be seen in the range of 1 mM-0.3 M, preferably in the range of 3 mM-50 mM and most preferably within 5 mM-20 mM. For the more toxic solvents the suitable concentration lies within the more limited ranges. […] After these additions, the incubation is allowed to proceed overnight with continuous stirring. A centrifugation step is performed to remove the cells and the supernatants are analysed by an ELISA to quantify α-interferon. Human leukocytes prepared from buffy coats and used in concentrations between 8 and 11 million cells per mL are incubated in a basal media (either EMEM or a modified EMEM) supplemented with 1.5 g/L of tricine and 4% (v/v) PEG precipitated plasma. […] The cells are removed by a centrifugation step and the supernatants are analysed by an ELISA to quantify α-interferon. […]

[2] = system: non induced human leukocytes; assay: α-interferon production in non induced human leukocytes, ELISA of supernatant; format: cell-based; settings: absence of a viral inducer
Description: Human leukocytes prepared from buffy coats and used in concentrations between 8 and 11 million cells per mL are incubated in a basal media (either EMEM or a modified EMEM) supplemented with 1.5 g/L of tricine and 4% (v/v) PEG precipitated plasma. The experiments are performed in a volume of 40 mL medium in 100 mL glass bottles under continuous stirring. The cells are primed with 100 IU/mL α-interferon for 1.5 hours at 37° C. before addition of 30 mL/L Sendai virus. After 1.5 hours the incubation temperature is decreased to 30° C. and the organic solvents are added to the incubation medium. The solvent used are acetone, DMSO (final concentration: 5 mL/L), 2-butanone, NN-dimethylacetamide, NMP, tetramethylene sulfoxide (2.5 mL/L), TMU (1.5 mL/L), 2-pyrrolidinone (1.25 mL/L), 4-metyl-2-pentanone, 1,3-dimetyl-2-imidazolidinone and N-ethyl-2-pyrrolidinone (0.6 mL/L). The incubation is then allowed to proceed overnight. The cells are removed by a centrifugation step and the supernatants are analysed by an ELISA to quantify α-interferon.
Example 1 is repeated with the same incubation conditions but with addition of 2-ABMP in combination with DMSO. The enhancing agents are added both to Sendai virus induced leukocytes and to non induced leukocytes and the effect on the α-interferon production is compared. The 2-ABMP is added at a concentration of 50 μg/ml and the amount of DMSO added is 5 mL/L.

## Cc1nc(N)nc(O)c1Br [2-ABMP, 2-amino-5-bromo-6-methyl-4-pyrimidinol]
[1]
  effect on production of α-interferon (in words): act as an enhancing agent
[2]
  induction of α-interferon (in words): did not induce α-interferon

## C[S+](C)[O-] [dimethylsulfoxide]
[1]
  effect on production of α-interferon (in words): enhanced

## CCCC(=O)[O-].[Na+] [sodium butyrate]
[1]; pre-treatment of primary leukocytes
  effect on yield of α-interferon (in words): decrease

## Cn1c(=O)c2[nH]cnc2n(C)c1=O [theophylline]
[1]
  effect on production of α-interferon (in words): enhanced
